Results as given in patent US20110224240A1 (Myrexis, Inc., priority 2010, published 2011).

Assays:
Assay in all cases: Multidrug resistant cell assay, cytotoxicity
[1] = test system: P388; assay type: cell-based, murine; settings: Mus musculus; P388; 72 hours; read-out: Various MDR Cell Line Cytotoxicity IC50
[2] = test system: P388/ADR (MDR-1); assay type: cell-based; settings: 72 hours, read-out: Various MDR Cell Line Cytotoxicity IC50
Experimental: P388/ADR cell lines were obtained from American Type Culture Collection (Manassas, Va.) and maintained in RPMI-1640 media supplemented with 10% FCS, 10 units/ml penicillin and streptomycin, 2 mM Glutamax and 1 mM sodium pyruvate (Invitrogen Corporation, Carlsbad, Calif.). […] Cells were allowed to adhere to the plate overnight and then incubated with the compound at final concentrations ranging from 0.13 nM to 10 uM for 72 hours. Cell viability was then assessed using the ATP-lite reagent (Perkin Elmer, Foster City, Calif.). Plates were read on a Wallac Topcount luminescence reader (Perkin Elmer, Foster City, Calif.) and the results graphed in Prism software (Graphpad Software, Inc., San Diego, Calif.). Non-linear regression with variable slope analysis was performed to obtain IC50 concentration values.

[3] = test system: MCF-7; assay type: cell-based; settings: Homo sapiens, MCF7, 72 h, read-out: Various MDR Cell Line Cytotoxicity IC50
[4] = test system: NCI/ADR-Res (MDR-1); settings: 72 h, read-out: Various MDR Cell Line Cytotoxicity IC50
[5] = test system: MCF-7/MX (BCRP-1); assay type: cell-based; settings: MCF7/MX, 72 h, read-out: Various MDR Cell Line Cytotoxicity IC50
[6] = test system: MCF-7/VP (MRP-1); settings: Homo sapiens, MCF7-VP, 72 h, read-out: Various MDR Cell Line Cytotoxicity IC50

Structure (SMILES)	IC50 [1] [nM]	IC50 [2] [nM]	IC50 [3] [nM]	IC50 [4] [nM]	IC50 [5] [nM]	IC50 [6] [nM]
CC(=O)O[C@@]12CO[C@@H]1C[C@H](O)[C@@]1(C)C(=O)[C@H](O)C3=C(C)[C@@H](OC(=O)[C@H](O)[C@@H](NC(=O)OC(C)(C)C)c4ccccc4)C[C@@](O)([C@@H](OC(=O)c4ccccc4)[C@H]21)C3(C)C [Docetaxel, docetaxel]	3.3	200	13	900		
COc1cccc2c1C(=O)c1c(O)c3c(c(O)c1C2=O)C[C@@](O)(C(=O)CO)C[C@@H]3O[C@H]1C[C@H](N)[C@@H](O)[C@H](C)O1 [Epirubicin, epirubicin, reference compound]			160		400	2100
CC[C@]1(O)C[C@@H]2CN(CCc3c([nH]c4ccccc34)[C@@](C(=O)OC)(c3cc4c(cc3OC)N(C)[C@H]3[C@@](O)(C(=O)OC)[C@H](OC(C)=O)[C@]5(CC)C=CCN6CC[C@]43[C@@H]65)C2)C1 [Vinblastine, vinblastine]	0.5	8.3	1.4	100		
